Residues, ends and D or L forms follow the SMILES beside them.
T1: BTLA-Fc (Homo sapiens, UniProt Q7Z6A9)
T1 construct: Fc
T1 sequence (Q7Z6A9 31-157 limits assumed): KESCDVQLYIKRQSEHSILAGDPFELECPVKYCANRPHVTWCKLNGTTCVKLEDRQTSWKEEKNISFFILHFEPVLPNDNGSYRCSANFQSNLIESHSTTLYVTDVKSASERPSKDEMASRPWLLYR

T2: recombinant BTLA-Fc protein (B and T lymphocyte attenuator) (UniProt Q7Z6A9 31-137)
T2 construct: B and T lymphocyte attenuator (BTLA); source: recombinant
T2 sequence: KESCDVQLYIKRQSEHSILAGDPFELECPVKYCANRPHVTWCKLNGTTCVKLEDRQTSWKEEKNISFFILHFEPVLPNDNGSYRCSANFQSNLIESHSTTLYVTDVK

B1: DP2 E27P E38F (peptide)
peptide: Ac-KPACGELTGTVCF-NH2
modifications: cysteine pairing not given here
notes: HVEM residues 26-38 with E27P and E38F; source: synthetic peptide (SPPS, Fmoc; Jiangsu Shenlang Biotech)
B2: DP2-E1 (peptide)
peptide: Ac-YRVKPACGELTGTVCFP-NH2
modifications: cysteine pairing not given here
notes: HVEM residues 23-39 with the DP2 mutations E27P and E38F; also called extended DP2 (17 aa); source: synthetic peptide (SPPS, Fmoc; Jiangsu Shenlang Biotech)
B3: DP2-E2 (peptide)
peptide: Ac-ESCPKCSPGYRVKPACGELTGTVCFP-NH2
modifications: cysteine pairing not given here
notes: HVEM residues 14-39 with the DP2 mutations E27P and E38F; also called extended DP2 (26 aa); source: synthetic peptide (SPPS, Fmoc; Jiangsu Shenlang Biotech)

How the values were obtained:
BTLA-Fc = target: T1, BTLA-Fc; assay: Surface plasmon resonance (SPR), binding of peptides to BTLA; details: for Binding to BTLA in words: qualitative statement in running text
Description: The SPR assay was conducted using Biacore T100 system with Sensor Chip CM5 (Cytiva, Marlborough, MA, USA). BTLA-Fc was conjugated to the chips with EDC/NHS coupling in NaAc buffer. The assay was performed in PBS buffer with 2% DMSO. The buffer calibration was conducted by mixing different volume of buffers with 1.5% or 2.8% DMSO. Various concentrations of the peptides were injected and flow through the chip at 30 µL/min. The signals were recorded and analyzed with either static (for fast dissociation) or kinetic (for slow dissociation) model.

[1] = test system: BTLA/HVEM binding (BTLA-Fc coated, HVEM-biotin); assay: Competitive ELISA, peptides against Biotin-HVEM for BTLA; details: 1 mg/mL peptide; for Inhibition of BTLA/HVEM binding, titration of peptide-BTLA with different concentrations of HVEM: competitive ELISA, dose dependent, HVEM-biotin titrated, qualitative comparison; for Inhibition in preliminary competitive ELISA screen: 12 h at room temperature, peptides with response value under 85% of the control were selected, absorbance 630 nm
Excerpt: Though computational methods provided certain guidelines for picking the mutations, they are not 100% accurate since simplified models were used, like ignoring the possible conformation changes caused by mutations. Thus, the wet-lab examination is necessary to confirm their inhibition effects. The library containing predicted peptides was synthesized by solid phase peptide synthesis (SPPS) method with Fmoc strategy. We used competitive ELISA for the screen to ensure the positive peptides selectively binds in situ on the BTLA/HVEM interface. Biotin-HVEM was used as the signal reporter. Peptides with strong binding of BTLA will compete with Biotin-HVEM and result in lower signal. A primary screen was carried out by using 1 mg/mL of each peptide and those with response value under 85% of the control were selected for further characterization (Figure 2a).
96-well EIA/RIA plates (High Binding, Corning Incorporated) were coated with 350 ng/well of recombinant BTLA-Fc protein in PBS (50 µL/well), incubating at 37 °C overnight until the solutions evaporate completely. Methanol was added for protein fixation and the wells were blocked with 5% BSA in PBS (200 µL/well). The peptides in DMSO were diluted into 1 mg/mL in PBS (50 µL/well) and incubated 12 h at room temperature. Wells were washed six times with PBST (phosphate buffer saline with 0.1% Tween-20, pH 7.4). Different concentrations of recombinant HVEM-biotin protein (50 µL/well) was added and incubated for 2 h at room temperature. Wells were washed six times with PBS. Horseradish peroxidase (HRP) labeled Streptavidin was finally added at a 1/5000 dilution in PBS and incubated for 2 h at room temperature. 3, 3′, 5, 5′,-tetramethylbenzidine (TMB, Beyotime) was used for color development. The absorbance was read at 630 nm using Microplate Reader. Statistical analysis of the results was performed using GraphPad Prism 7 software.

[2] = target: T2, recombinant BTLA-Fc protein (B and T …); assay: SPR; Biacore T100, CM5 chip; BTLA-Fc coupled by EDC/NHS; peptides injected at 30 µL/min in PBS with 2% DMSO; static (fast dissociation) or kinetic (slow dissociation) model; details: both partners purified

Row | Molecule | Inhibition of BTLA/HVEM binding, titration of peptide-BTLA with different concentrations of HVEM [1] | Inhibition in preliminary competitive ELISA screen [1] | Kd [2] [mM] | further results
1 | Ac-KEACGELTGTVCE-NH2 [P0, reference compound] | demonstrated little inhibition |  |  | Binding to BTLA in words (BTLA-Fc): can barely bind to BTLA
2 | CC(=O)N[C@@H](CCCCN)C(=O)N1CCC[C@H]1C(=O)N[C@@H](C)C(=O)N[C@@H](CS)C(=O)NCC(=O)N[C@@H](CCC(=O)O)C(=O)N[C@@H](CC(C)C)C(=O)N[C@H](C(=O)NCC(=O)N[C@H](C(=O)N[C@H](C(=O)N[C@@H](CS)C(=O)N[C@@H](Cc1ccccc1)C(N)=O)C(C)C)[C@@H](C)O)[C@@H](C)O [DP2] (Ac-KPACGELTGTVCF-NH2) | showed the best inhibitory effects | showed inhibition |  | 
3 | Ac-KEACGDLTGTVCE-NH2 [SP6, single mutant E31D of HVEM (26–38)] |  | showed inhibition |  | 
4 | Ac-KPACGELTGTVCE-NH2 [SP3, single mutant E27P of HVEM (26–38)] |  | showed inhibition |  | 
5 | Ac-KKACGELTGTVCF-NH2 [DP3, double mutant E27K E38F of HVEM (26–38)] |  | showed inhibition |  | 
6 | Ac-KEACGELPGTVCE-NH2 [SP7, single mutant T33P of HVEM (26–38)] |  | showed inhibition |  | 
7 | CC(=O)N[C@@H](CCC(=O)O)C(=O)N[C@@H](CO)C(=O)N[C@@H](CS)C(=O)N1CCC[C@H]1C(=O)N[C@@H](CCCCN)C(=O)N[C@@H](CS)C(=O)N[C@@H](CO)C(=O)N1CCC[C@H]1C(=O)NCC(=O)N[C@@H](Cc1ccc(O)cc1)C(=O)N[C@@H](CCCNC(=N)N)C(=O)N[C@H](C(=O)N[C@@H](CCCCN)C(=O)N[C@@H](CCC(=O)O)C(=O)N[C@@H](C)C(=O)N[C@@H](CS)C(=O)NCC(=O)N[C@@H](CCC(=O)O)C(=O)N[C@@H](CC(C)C)C(=O)N[C@H](C(=O)NCC(=O)N[C@H](C(=O)N[C@H](C(=O)N[C@@H](CS)C(=O)N[C@@H](CCC(=O)O)C(=O)N1CCC[C@H]1C(N)=O)C(C)C)[C@@H](C)O)[C@@H](C)O)C(C)C [P0-E2, reference compound] (Ac-ESCPKCSPGYRVKEACGELTGTVCEP-NH2; N-terminus and C-terminus assumed) | more potency than P0 |  |  | 
8 | CC(=O)N[C@@H](CCC(=O)O)C(=O)N[C@@H](CO)C(=O)N[C@@H](CS)C(=O)N1CCC[C@H]1C(=O)N[C@@H](CCCCN)C(=O)N[C@@H](CS)C(=O)N[C@@H](CO)C(=O)N1CCC[C@H]1C(=O)NCC(=O)N[C@@H](Cc1ccc(O)cc1)C(=O)N[C@@H](CCCNC(=N)N)C(=O)N[C@H](C(=O)N[C@@H](CCCCN)C(=O)N1CCC[C@H]1C(=O)N[C@@H](C)C(=O)N[C@@H](CS)C(=O)NCC(=O)N[C@@H](CCC(=O)O)C(=O)N[C@@H](CC(C)C)C(=O)N[C@H](C(=O)NCC(=O)N[C@H](C(=O)N[C@H](C(=O)N[C@@H](CS)C(=O)N[C@@H](Cc1ccccc1)C(=O)N1CCC[C@H]1C(N)=O)C(C)C)[C@@H](C)O)[C@@H](C)O)C(C)C [DP2-E2] (Ac-ESCPKCSPGYRVKPACGELTGTVCFP-NH2) | higher affinity than the native ones |  |  | 
9 | CC(=O)N[C@@H](Cc1ccc(O)cc1)C(=O)N[C@@H](CCCNC(=N)N)C(=O)N[C@H](C(=O)N[C@@H](CCCCN)C(=O)N1CCC[C@H]1C(=O)N[C@@H](C)C(=O)N[C@@H](CS)C(=O)NCC(=O)N[C@@H](CCC(=O)O)C(=O)N[C@@H](CC(C)C)C(=O)N[C@H](C(=O)NCC(=O)N[C@H](C(=O)N[C@H](C(=O)N[C@@H](CS)C(=O)N[C@@H](Cc1ccccc1)C(=O)N1CCC[C@H]1C(N)=O)C(C)C)[C@@H](C)O)[C@@H](C)O)C(C)C [DP2-E1] (Ac-YRVKPACGELTGTVCFP-NH2) | higher affinity than the native ones |  |  | Binding to BTLA in words (BTLA-Fc): binds slightly tighter than P0-E1, however weaker than DP2
10 | CC(=O)N[C@@H](Cc1ccc(O)cc1)C(=O)N[C@@H](CCCNC(=N)N)C(=O)N[C@H](C(=O)N[C@@H](CCCCN)C(=O)N[C@@H](CCC(=O)O)C(=O)N[C@@H](C)C(=O)N[C@@H](CS)C(=O)NCC(=O)N[C@@H](CCC(=O)O)C(=O)N[C@@H](CC(C)C)C(=O)N[C@H](C(=O)NCC(=O)N[C@H](C(=O)N[C@H](C(=O)N[C@@H](CS)C(=O)N[C@@H](CCC(=O)O)C(=O)N1CCC[C@H]1C(N)=O)C(C)C)[C@@H](C)O)[C@@H](C)O)C(C)C [P0-E1] (Ac-YRVKEACGELTGTVCEP-NH2) |  |  |  | Kd (BTLA-Fc; value as stated in running text): 9 mM
11 | Ac-YRVKEACGELTGTVCEP-NH2 (cysteine pairing not given here) [P0-E1] |  |  | 9.93 | 
12 | Ac-ESCPKCSPGYRVKEACGELTGTVCEP-NH2 (cysteine pairing not given here) [P0-E2] |  |  | 0.0941 | 
13 | B1 |  |  | 1.75 | 
14 | B2 |  |  | 3.04 | 
15 | B3 |  |  | 1.46e-06 | 

From paper PMC8234244, “Virtual Evolution of HVEM Segment for Checkpoint Inhibitor Discovery” (International Journal of Molecular Sciences, 2021)
